From ChEMBL document CHEMBL1142351, “Synthesis and characterization of 8-ethynyl-1,3-dihydro-benzo[b][1,4]diazepin-2-one derivatives: part 2. New potent non-competitive metabotropic glutamate receptor 2/3 antagonists” (Bioorg Med Chem Lett, 2008)
The source made the active and inactive calls. The rule behind the calls is not given here.

How the values were obtained:
[1] = target: T1, Metabotropic glutamate receptor 2 (Rattus norvegicus, UniProt P31421); experiment: Displacement of [3H]LY354740 from rat recombinant mGluR2 expressed in CHO cells; assay type: cell-based
T1 sequence (P31421 whole entry): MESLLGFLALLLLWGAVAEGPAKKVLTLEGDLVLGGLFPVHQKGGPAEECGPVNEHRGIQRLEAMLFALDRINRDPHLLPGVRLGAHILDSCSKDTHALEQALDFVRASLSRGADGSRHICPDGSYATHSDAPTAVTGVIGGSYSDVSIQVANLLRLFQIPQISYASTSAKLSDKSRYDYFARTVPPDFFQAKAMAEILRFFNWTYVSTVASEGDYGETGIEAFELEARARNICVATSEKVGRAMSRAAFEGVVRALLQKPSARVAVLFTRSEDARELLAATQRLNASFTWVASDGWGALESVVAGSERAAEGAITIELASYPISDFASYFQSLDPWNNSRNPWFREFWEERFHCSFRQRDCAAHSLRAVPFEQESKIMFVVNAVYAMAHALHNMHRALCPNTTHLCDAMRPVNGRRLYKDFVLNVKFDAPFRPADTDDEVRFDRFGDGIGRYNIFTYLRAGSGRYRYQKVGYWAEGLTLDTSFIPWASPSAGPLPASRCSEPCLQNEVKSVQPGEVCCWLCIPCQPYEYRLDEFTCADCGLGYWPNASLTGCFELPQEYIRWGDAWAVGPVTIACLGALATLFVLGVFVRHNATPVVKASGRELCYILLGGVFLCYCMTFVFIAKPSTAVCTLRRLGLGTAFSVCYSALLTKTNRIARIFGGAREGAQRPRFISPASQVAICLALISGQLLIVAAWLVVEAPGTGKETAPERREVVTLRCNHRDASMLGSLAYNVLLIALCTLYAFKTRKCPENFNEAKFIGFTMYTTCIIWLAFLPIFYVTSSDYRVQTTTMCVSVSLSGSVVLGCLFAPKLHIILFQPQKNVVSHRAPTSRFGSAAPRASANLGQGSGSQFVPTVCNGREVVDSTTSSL

[2] = target: T1, Metabotropic glutamate receptor 2; experiment: Antagonist activity at rat mGluR2 assessed as effect on (1S,3R)-ACPD-induced inhibition of forskolin-stimulated cAMP production; assay type: functional
Rattus norvegicus [3] = species on record: Rattus norvegicus; experiment: Antagonist activity at mGluR group 2 in rat hippocampus assessed as blockade of LY-354740-mediated inhibition of fEPSPs after 3 hrs; assay type: functional, tissue-based
Rattus norvegicus [4] = species on record: Rattus norvegicus; experiment: Antagonist activity at mGluR group 2 in rat hippocampus assessed as reversal of LY-354740-mediated inhibition of fEPSPs in dentate gyrus; assay type: functional, tissue-based
[5] = target: Metabotropic glutamate receptor 3 (Rattus norvegicus) (UniProt P31422); experiment: Antagonist activity at rat mGluR3 transiently transfected in CHO cells expressing GIRKs assessed as inhibition of glutamate-induced reversible inward K+ current; assay type: functional, cell-based
Chain of Metabotropic glutamate receptor 3 (Rattus norvegicus) (P31422 23-879 limits assumed): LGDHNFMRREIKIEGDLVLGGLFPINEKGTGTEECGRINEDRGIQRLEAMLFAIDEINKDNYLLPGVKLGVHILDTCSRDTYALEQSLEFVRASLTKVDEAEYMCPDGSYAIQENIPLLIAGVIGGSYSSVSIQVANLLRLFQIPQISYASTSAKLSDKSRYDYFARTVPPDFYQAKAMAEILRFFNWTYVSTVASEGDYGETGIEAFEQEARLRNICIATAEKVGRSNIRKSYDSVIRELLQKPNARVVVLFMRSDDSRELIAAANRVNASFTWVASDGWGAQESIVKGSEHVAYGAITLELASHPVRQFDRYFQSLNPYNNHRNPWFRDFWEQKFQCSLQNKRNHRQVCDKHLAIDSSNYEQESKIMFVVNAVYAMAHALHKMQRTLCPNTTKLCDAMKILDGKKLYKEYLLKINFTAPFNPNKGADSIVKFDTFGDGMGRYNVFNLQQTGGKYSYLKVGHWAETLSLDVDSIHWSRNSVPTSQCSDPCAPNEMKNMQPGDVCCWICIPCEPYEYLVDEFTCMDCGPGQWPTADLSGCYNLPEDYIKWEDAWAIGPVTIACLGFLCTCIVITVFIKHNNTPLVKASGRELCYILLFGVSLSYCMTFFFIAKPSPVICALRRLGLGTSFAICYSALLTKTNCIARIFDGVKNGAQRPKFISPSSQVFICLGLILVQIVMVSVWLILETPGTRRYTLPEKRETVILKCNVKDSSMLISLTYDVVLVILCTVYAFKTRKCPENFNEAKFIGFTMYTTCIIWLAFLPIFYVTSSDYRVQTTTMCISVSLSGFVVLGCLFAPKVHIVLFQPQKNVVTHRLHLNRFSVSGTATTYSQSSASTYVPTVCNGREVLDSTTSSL

[6] = target: Metabotropic glutamate receptor 2 (Rattus norvegicus) (UniProt P31421); experiment: Antagonist activity at rat mGluR2 transiently transfected in CHO cells expressing GIRKs assessed as inhibition of glutamate-induced reversible inward K+ current; assay type: functional, cell-based
Chain of Metabotropic glutamate receptor 2 (Rattus norvegicus) (P31421 19-872 limits assumed): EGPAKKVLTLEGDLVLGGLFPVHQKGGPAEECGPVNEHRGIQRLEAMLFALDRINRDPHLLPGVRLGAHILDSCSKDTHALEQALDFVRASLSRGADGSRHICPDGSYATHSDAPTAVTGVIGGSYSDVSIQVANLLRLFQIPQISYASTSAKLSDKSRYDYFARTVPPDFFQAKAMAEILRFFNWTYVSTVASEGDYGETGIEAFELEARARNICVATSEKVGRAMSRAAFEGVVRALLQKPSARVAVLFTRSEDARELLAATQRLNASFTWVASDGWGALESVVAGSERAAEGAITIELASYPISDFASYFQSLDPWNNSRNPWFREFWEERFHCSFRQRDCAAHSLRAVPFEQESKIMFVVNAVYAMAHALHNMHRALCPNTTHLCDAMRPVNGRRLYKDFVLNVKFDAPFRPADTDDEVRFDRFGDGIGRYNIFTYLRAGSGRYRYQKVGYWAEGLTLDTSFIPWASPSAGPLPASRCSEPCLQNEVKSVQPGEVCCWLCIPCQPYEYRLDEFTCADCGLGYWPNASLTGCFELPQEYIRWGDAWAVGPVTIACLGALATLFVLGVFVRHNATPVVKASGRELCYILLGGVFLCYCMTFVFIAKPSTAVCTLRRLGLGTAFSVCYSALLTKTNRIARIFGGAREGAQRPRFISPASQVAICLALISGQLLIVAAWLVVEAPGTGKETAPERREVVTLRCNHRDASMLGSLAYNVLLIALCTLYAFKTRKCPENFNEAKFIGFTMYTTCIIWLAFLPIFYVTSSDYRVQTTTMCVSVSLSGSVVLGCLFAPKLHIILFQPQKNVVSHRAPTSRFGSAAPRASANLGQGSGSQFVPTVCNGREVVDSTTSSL

[7] = Binding affinity to GABAA
[8] = target: Metabotropic glutamate receptor 8 (Rattus norvegicus) (UniProt P70579); experiment: (§1) Displacement of [3H]-L-AP4 from rat mGluR8
Chain of Metabotropic glutamate receptor 8 (Rattus norvegicus) (P70579 whole entry): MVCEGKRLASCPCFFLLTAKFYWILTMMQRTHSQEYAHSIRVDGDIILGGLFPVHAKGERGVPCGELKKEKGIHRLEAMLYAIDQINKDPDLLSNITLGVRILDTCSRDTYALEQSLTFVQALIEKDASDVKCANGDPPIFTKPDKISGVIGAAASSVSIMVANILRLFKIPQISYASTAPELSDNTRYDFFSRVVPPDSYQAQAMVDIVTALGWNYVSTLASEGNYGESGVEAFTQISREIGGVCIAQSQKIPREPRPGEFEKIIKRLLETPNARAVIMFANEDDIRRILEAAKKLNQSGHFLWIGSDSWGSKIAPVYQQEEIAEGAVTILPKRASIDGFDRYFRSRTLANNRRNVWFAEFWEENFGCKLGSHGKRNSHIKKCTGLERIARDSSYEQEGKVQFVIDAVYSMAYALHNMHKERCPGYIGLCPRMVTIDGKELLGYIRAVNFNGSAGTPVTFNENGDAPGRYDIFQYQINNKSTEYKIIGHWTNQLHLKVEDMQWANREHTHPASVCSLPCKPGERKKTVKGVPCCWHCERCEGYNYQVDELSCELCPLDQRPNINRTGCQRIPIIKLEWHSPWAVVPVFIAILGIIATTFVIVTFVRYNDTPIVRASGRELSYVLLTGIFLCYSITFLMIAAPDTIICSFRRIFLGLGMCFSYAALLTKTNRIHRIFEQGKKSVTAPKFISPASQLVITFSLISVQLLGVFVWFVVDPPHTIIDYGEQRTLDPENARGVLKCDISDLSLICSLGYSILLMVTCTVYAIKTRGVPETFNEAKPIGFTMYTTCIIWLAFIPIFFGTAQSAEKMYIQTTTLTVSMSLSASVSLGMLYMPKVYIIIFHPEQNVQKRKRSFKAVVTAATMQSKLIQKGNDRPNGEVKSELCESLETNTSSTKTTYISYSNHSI

[9] = Binding affinity to NMDA
[10] = target: Metabotropic glutamate receptor 8 (Rattus norvegicus, UniProt P70579); experiment: as §1
Chain of Metabotropic glutamate receptor 8 (P70579 whole entry): as above

[11] = target: T1, Metabotropic glutamate receptor 2; experiment: Displacement of [3H]LY354740 from rat mGluR2

Structure (SMILES) | IC50 [1] [nM] | IC50 [2] [nM] | also measured
CN(C)c1cc2c(cc1C#Cc1ccccc1)NC(=O)CC(c1cccc(-n3ccnn3)c1)=N2 | 36 |  | 
O=C1CC(c2cccc(-n3ccnn3)c2)=Nc2ccc(C#Cc3ccc(F)cc3)cc2N1 | 6 | 12 | 
O=C1CC(c2cccc(-n3ccnc3)c2)=Nc2cc(O)c(C#Cc3ccc(F)cc3)cc2N1 | 26 | 11 | Activity (Rattus norvegicus [3]): Active; Activity (Rattus norvegicus [4]): Active; Activity [5]: Active; Activity [6]: Active; Activity [7]: inactive; Activity [8]: inactive; Activity [9]: inactive
O=C1CC(c2cccc(-n3ccnn3)c2)=Nc2cc(O)c(C#Cc3ccc(F)cc3)cc2N1 | 20 | 17 | Activity [5]: Active; Activity [6]: Active; Activity [7]: inactive; IC50 [10]: 5 µM; Activity [9]: inactive
Cn1ccnc1-c1cccc(C2=Nc3ccc(C#Cc4ccccc4)cc3NC(=O)C2)c1 | 730 |  | 
O=C1CC(c2cccc(-n3ccnc3)c2)=Nc2cc(OCCO)c(C#Cc3ccc(F)cc3)cc2N1 | 46 |  | 
O=C1CC(c2cccc(-n3cncn3)c2)=Nc2ccc(C#Cc3ccc(F)cc3)cc2N1 | 98 |  | 
O=C1CC(c2cccc(-n3ccnc3)c2)=Nc2ccc(C#Cc3ccc(F)cc3)cc2N1 | 9 | 9 | 
COCCOc1cc2c(cc1C#Cc1ccccc1)NC(=O)CC(c1cccc(-n3ccnc3)c1)=N2 | 23 | 15 | 
O=C1CC(c2cccc(-n3cnnn3)c2)=Nc2ccc(C#Cc3ccc(F)cc3)cc2N1 | 72 |  | 
O=C1CC(c2cccc(-n3ccnc3)c2)=Nc2cc(OCCO)c(C#Cc3ccccc3)cc2N1 | 64 |  | 
Cc1ccc2c(c1)NC(=O)CC(c1ccccc1)=N2 |  |  | IC50 [11]: 6.4 µM
Cc1cn(-c2cccc(C3=Nc4ccc(C#Cc5ccc(F)cc5)cc4NC(=O)C3)c2)cn1 | 98 |  | 
N#Cc1cccc(C2=Nc3ccc(C#Cc4ccccc4)cc3NC(=O)C2)c1 |  | 17 | 
O=C1CC(c2cccc(-n3ccnc3)c2)=Nc2ccc(C#Cc3ccccc3F)cc2N1 | 20 | 16 | 
N#CCOc1cc2c(cc1C#Cc1ccccc1)NC(=O)CC(c1cccc(-n3ccnc3)c1)=N2 | 18 | 13 | 
CN(CCO)c1cc2c(cc1C#Cc1ccc(F)cc1)NC(=O)CC(c1cccc(-n3ccnc3)c1)=N2 | 140 |  | 
O=C1CC(c2cccc(-n3ccnc3)c2)=Nc2ccc(C#Cc3ccccc3)cc2N1 | 13 | 10 | 
O=C1CC(c2cccc(-n3nncc3CO)c2)=Nc2cc(O)c(C#Cc3ccc(F)cc3)cc2N1 | 378 |  | 
Cc1cn(-c2cccc(C3=Nc4ccc(C#Cc5ccccc5)cc4NC(=O)C3)c2)c(C)n1 | 170 |  | 
